Data reported in article PMC11240562 (2024).

Columns and labels:
[1] = system: ODN3/ODN4 duplex (X = ^Am2dA, Y = T), dye-labelled (DNA, duplex, ^Am2dA (N6-adenosine bearing 1-aminoadamantane via C2 linker) at 6 of strand 1) CTCAGAGTAAGG/CCTTACTCTGAG; experiment: FAM/Dabcyl fluorescence time course, kout/kin; details: Na+ (150 mM NaCl, sodium phosphate), apparent, host binds guest tethered to DNA, duplex dissociates, 10 mM phosphate pH 7.0, 37 °C
[2] = system: ODN1/ODN2 duplex (X = A, Y = T) (DNA, duplex) CTCAGAGTAAGG/CCTTACTCTGAG; experiment: UV melting; details: Na+ (150 mM NaCl, sodium phosphate); no significant Tm change; duplex 2 μM, CB[7] 4 μM; 10 mM phosphate pH 7.0
[3] = system: ODN1/ODN2 duplex (X = ^Am2dA, Y = T) (DNA, duplex, ^Am2dA (N6-adenosine bearing 1-aminoadamantane via C2 linker) at 6 of strand 1) CTCAGAGTAAGG/CCTTACTCTGAG; experiment: UV melting; details: Na+ (150 mM NaCl, sodium phosphate); destabilisation (Tm lowered by CB[7]); duplex 2 μM, CB[7] 4 μM; 10 mM phosphate pH 7.0
[4] = system: ODN1/ODN2 duplex (X = ^Am4dA, Y = T) (DNA, duplex, ^Am4dA (N6-adenosine bearing 1-aminoadamantane via C4 linker) at 6 of strand 1) CTCAGAGTAAGG/CCTTACTCTGAG; experiment: UV melting; details: Na+ (150 mM NaCl, sodium phosphate); destabilisation (Tm lowered by CB[7]); duplex 2 μM, CB[7] 4 μM; 10 mM phosphate pH 7.0
[5] = system: ODN1/ODN2 duplex (X = ^Am3dA, Y = T) (DNA, duplex, ^Am3dA (N6-adenosine bearing 1-aminoadamantane via C3 linker) at 6 of strand 1) CTCAGAGTAAGG/CCTTACTCTGAG; experiment: UV melting; details: Na+ (150 mM NaCl, sodium phosphate); destabilisation (Tm lowered by CB[7]); duplex 2 μM, CB[7] 4 μM; 10 mM phosphate pH 7.0

Kd [1]: 1.0 × 10^–9 M
binding [2]: no
ΔTm [3]: 20.4 °C
ΔTm [4]: 4.7 °C
ΔTm [5]: 3.6 °C
Structure (SMILES): O=C1N2CN3C(=O)N4CN5C(=O)N6CN7C(=O)N8CN9C(=O)N%10CN%11C(=O)N%12CN%13C(=O)N%14CN1C1C2N2CN%15C(=O)N(CN%16C(=O)N(CN%17C(=O)N(CN%18C(=O)N(CN%19C(=O)N(CN%20C(=O)N(CN1C2=O)C%14C%13%20)C%12C%11%19)C%10C9%18)C8C7%17)C6C5%16)C4C3%15 (centres unmarked)
